Molecules are shown by their SMILES. Where only a bound is given, the exact number is not on record here.

The results in this text go back to patent US10166216B2 (Rigel Pharmaceuticals, Inc., priority 2006, dated 2019).

The experiment has as its target Axl (Homo sapiens (Human), UniProt P30530). The experiment can be described thus: Phospho-Akt in-cell Western assay (Axl-antibody cross-linking stimulation). Conditions: inhibition of Axl activity. Type of experiment: cell-based. The essentials: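 HeLa cells on poly-L-lysine, starved 24 hrs with Axl/Fc, pre-treated with compound 1 hr at 37° C., then stimulated 5 min with Axl primary/secondary antibody cluster. Fixed cells probed for phospho-Akt by chemiluminescent in-cell Western; signal normalized to crystal violet cell number.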

[1] abbreviates: phospho-Akt in-cell Western assay.
The mark [2] stands for this setting: Hela cells, phospho-Akt readout, Table 5, formula (Ia3).
Setting [3] is: Hela cells, phospho-Akt readout, Table 1, formula (Ia1).

Sequence of Axl (P30530 26-894): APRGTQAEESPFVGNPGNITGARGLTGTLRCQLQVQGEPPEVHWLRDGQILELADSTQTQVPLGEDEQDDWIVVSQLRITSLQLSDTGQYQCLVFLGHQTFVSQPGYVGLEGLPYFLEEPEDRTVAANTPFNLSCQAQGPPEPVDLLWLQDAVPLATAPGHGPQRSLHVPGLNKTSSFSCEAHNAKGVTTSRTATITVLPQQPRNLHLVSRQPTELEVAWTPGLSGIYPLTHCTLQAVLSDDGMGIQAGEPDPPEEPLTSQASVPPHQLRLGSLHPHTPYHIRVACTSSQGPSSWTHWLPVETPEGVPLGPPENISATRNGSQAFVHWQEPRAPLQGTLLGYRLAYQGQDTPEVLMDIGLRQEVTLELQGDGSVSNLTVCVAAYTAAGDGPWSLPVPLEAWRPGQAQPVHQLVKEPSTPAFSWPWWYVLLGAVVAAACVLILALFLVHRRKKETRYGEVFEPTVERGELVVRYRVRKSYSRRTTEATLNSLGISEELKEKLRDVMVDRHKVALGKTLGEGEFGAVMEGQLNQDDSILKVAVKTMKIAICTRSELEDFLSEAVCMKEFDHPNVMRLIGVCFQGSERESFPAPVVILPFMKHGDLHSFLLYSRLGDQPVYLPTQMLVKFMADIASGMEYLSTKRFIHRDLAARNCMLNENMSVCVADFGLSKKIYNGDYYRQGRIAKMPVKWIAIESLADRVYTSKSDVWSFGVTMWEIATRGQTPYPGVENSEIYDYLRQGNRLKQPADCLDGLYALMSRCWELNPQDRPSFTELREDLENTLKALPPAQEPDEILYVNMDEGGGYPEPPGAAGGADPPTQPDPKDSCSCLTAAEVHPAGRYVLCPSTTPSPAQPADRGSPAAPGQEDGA

One may read the IC50 as the concentration needed to halve the response being measured. Turning to `COc1cc2ncnc(-n3nc(Nc4ccc(N5CCN(C6C7CCCC6CCC7)CC5)cc4)nc3N)c2cc1OC` (centres unmarked) [Compound 118, N^3-(4-(4-(bicyclo[3.3.1]nonan-9-yl)piperazin-1-yl)phenyl)-1-(6,7-dimethoxyquinazolin-4-yl)-1H-1,2,4-triazole-3,5-diamine], the IC50 under setting [1] was in the range of 1000 to 10000 nM.

In turn, `Nc1nc(Nc2ccc(N3CCN(C4CC5CCC4C5)CC3)c(F)c2)nn1-c1ncnc2ccsc12` (centres unmarked) [Compound 195, 1-(thieno[3,2-d]pyrimdin-4-yl)-N^3-(3-fluoro-4-(4-(bicyclo[2.2.1]heptan-2-yl)-piperazin-1-yl)phenyl)-1H-1,2,4-triazole-3,5-diamine] came in with a concentration for half-maximal inhibition (IC50) under setting [1] of less than 1000 nM.

The compound `COc1cc2ncnc(-n3nc(Nc4ccc(N5CCN(C(C)=O)CC5)cc4)nc3N)c2cc1OC` [Compound 107, 1-(4-(4-(5-amino-1-(6,7-dimethoxyquinazolin-4-yl)-1H-1,2,4-triazol-3-ylamino)phenyl)piperazin-1-yl)ethanone] registered an IC50 under setting [1] of less than 1000 nM.

In the case of `COc1cc2c(-n3nc(Nc4ccc(N5CCN(C6CCCCC6)CC5)cc4)nc3N)ncnc2cc1O` [Compound 82, 4-(5-amino-3-(4-(4-cyclohexylpiperazin-1-yl)phenylamino)-1H-1,2,4-triazol-1-yl)-6-methoxyquinazolin-7-ol], the IC50 under setting [1] is less than 1000 nM.

Regarding `CN1CCN(c2ccc(Nc3nc(N)n(-c4ncc5c(n4)-c4ccccc4CC5)n3)cc2)CC1` [Compound 92, 1-(5,6-dihydrobenzo[h]quinazolin-2-yl)-N^3-(4-(4-methylpiperazin-1-yl)phenyl)-1H-1,2,4-triazole-3,5-diamine], the 50% inhibitory concentration (IC50) under setting [1] is less than 1000 nM.

Compound `Cc1csc2c(-n3nc(Nc4ccc(C(=O)NCCN5CCCC5)cc4)nc3N)nc(Cl)nc12` [Compound 208, 1-(7-methyl-2-chlorothieno[3,2-d]pyrimidin-4-yl)-N^3-(4-((2-(pyrrolidin-1-yl)ethyl)aminocarbonyl)phenyl)-1H-1,2,4-triazole-3,5-diamine] showed an IC50 under setting [2] of less than 1000 nM.

`CN1CCN(c2ccc(Nc3nc(N)n(-c4ncnc5cc(O)c(O)cc45)n3)cc2F)CC1` [Compound 116, 4-(5-amino-3-(3-fluoro-4-(4-methylpiperazin-1-yl)phenylamino)-1H-1,2,4-triazol-1-yl)quinaoline-6,7-diol] displayed an IC50 under setting [1] of 1000 to 10000 nM.

`CC(=O)c1ccc(Nc2nc(N)n(-c3ccccc3F)n2)cc1` [Compound 147, 1-(4-(5-amino-1-(2-fluorophenyl)-1H-1,2,4-triazol-3-ylamino)phenyl)ethanone] registered an IC50 under setting [2] greater than 20000 nM.

The compound `COc1cc2ncnc(-n3nc(Nc4ccc(N5CCOCC5)c(Cl)c4)nc3N)c2cc1OC` [Compound 159, N^3-(3-chloro-4-morpholinophenyl)-1-(6,7-dimethoxyquinazolin-4-yl)-1H-1,2,4-triazole-3,5-diamine] returned an IC50 under setting [2] of less than 1000 nM.

For `Nc1nc(Nc2ccc(OCCN3CCCC3)cc2)nn1-c1nccc2ccsc12` [Compound 64, N^3-(4-(2-(pyrrolidin-1-yl)ethoxy)phenyl)-1-(thieno[2,3-c]pyridin-7-yl)-1H-1,2,4-triazole-3,5-diamine], under setting [3], the half-inhibitory concentration (IC50) was less than 1000 nM.

As to `Nc1nc(Nc2ccc(OCCN3CCCC3)c(F)c2)nn1-c1ccccn1` [Compound 57, N^3-(3-fluoro-4-(2-(pyrrolidin-1-yl)ethoxy)phenyl)-1-(pyridin-2-yl)-1H-1,2,4-triazole-3,5-diamine], the half-maximal inhibitory concentration (IC50) under setting [3] was less than 1000 nM.

Under setting [2], `CN1CCN(Cc2ccc(Nc3nc(N)n(-c4nccc5ccccc45)n3)cc2)CC1` [Compound 163, 1-(isoquinolin-1-yl)-N^3-(4-((4-methylpiperazin-1-yl)methyl)phenyl)-1H-1,2,4-triazole-3,5-diamine] showed an IC50 of less than 1000 nM.

Under setting [1], `COc1cc2ncnc(-n3nc(Nc4ccc(N5CCN(C6CC7CCC6C7)CC5)cc4)nc3N)c2cc1OC` (centres unmarked) [Compound 98, N^3-(4-(4-(bicyclo[2.2.1]heptan-2-yl)piperazin-1-yl)phenyl)-1-(6,7-dimethoxyquinazolin-4-yl)-1H-1,2,4-triazole-3,5-diamine] showed an IC50 of less than 1000 nM.

As to `COc1cc2ncnc(-n3nc(N)nc3Nc3ccc(N4CCN(C5CCCCC5)CC4)cc3)c2cc1OC` [Compound 83, N^5-(4-(4-cyclohexylpiperazin-1-yl)phenyl)-1-(6,7-dimethoxyquinazolin-4-yl)-1H-1,2,4-triazole-3,5-diamine], the half-inhibitory concentration (IC50) (Hela cells, phospho-Akt readout, Table 4, formula (Ib2)) was less than 1000 nM.

With `COc1cc2ncnc(-n3nc(Nc4ccc(N5CCN(C6CCCCCCC6)CC5)cc4)nc3N)c2cc1OC` [Compound 112, N^3-(4-(4-cyclooctylpiperazin-1-yl)phenyl)-1-(6,7-dimethoxyquinazolin-4-yl)-1H-1,2,4-triazole-3,5-diamine], under setting [1], the IC50 was greater than 20000 nM.

Under setting [1], `Nc1nc(Nc2ccc(N3CCN(C4CC5CCC4C5)CC3)cc2)nn1-c1ncnc2sccc12` (centres unmarked) [Compound 127, N^3-(4-(4-(bicyclo[2.2.1]heptan-2-yl)piperazin-1-yl)phenyl)-1-(thieno[2,3-d]pyrimidin-4-yl)-1H-1,2,4-triazole-3,5-diamine] gave a concentration for half-maximal inhibition (IC50) of less than 1000 nM.

Take `Nc1nc(Nc2ccc(OCCN3CCCC3)cc2)nn1-c1cnccn1` [Compound 13, 1-(pyrazin-2-yl)-N^3-(4-(2-(pyrrolidin-1-yl)ethoxy)phenyl)-1H-1,2,4-triazole-3,5-diamine]: the IC50 under setting [3] is 1000 to 10000 nM.

For `Cc1cc(Nc2nc(N)n(-c3ncnc4c(C)csc34)n2)ccc1N1CCN(C2CC3CCC2C3)CC1` (centres unmarked) [Compound 199, 1-(7-methylthieno[3,2-d]pyrimidin-4-yl)-N^3-(3-methyl-4-(4-(bicyclo[2.2.1]heptan-2-yl)-piperazin-1-yl)phenyl)-1H-1,2,4-triazole-3,5-diamine], the IC50 under setting [1] is less than 1000 nM.

Compound `CN1CCN(c2ccc(Nc3nc(N)n(-c4nccc5[nH]c(=O)ccc45)n3)cc2F)CC1` [Compound 113, 5-(5-amino-3-(3-fluoro-4-(4-methylpiperazin-1-yl)phenylamino)-1H-1,2,4-triazol-1-yl)-1,6-naphthyridin-2(1H)-one] returned a half-inhibitory concentration (IC50) under setting [1] of less than 1000 nM.

Turning to `Cn1c(-n2nc(Nc3ccc(OCCN4CCCC4)cc3)nc2N)nc2ccccc21` [Compound 14, 1-(1-methyl-1H-benzo[d]imidazol-2-yl)-N^3-(4-(2-(pyrrolidin-1-yl)ethoxy)phenyl)-1H-1,2,4-triazole-3,5-diamine], under setting [3], the IC50 is greater than 20000 nM.

In the case of `Cc1cc(Nc2nc(N)n(-c3ncnc4c(C)csc34)n2)ccc1N1CCN([C@H]2C[C@@H]3CC[C@H]2C3)[C@@H](C)C1` [Compound 253, 1-(7-methylthieno[3,2-d]pyrimidin-4-yl)-N^3-(3-methyl-4-(3-(S)-methyl-4-((1S,2S,4R)-bicyclo[2.2.1]heptan-2-yl)piperazin-1-yl)phenyl)-1H-1,2,4-triazole-3,5-diamine], the IC50 under setting [1] was less than 1000 nM.

In the case of `CCN(CC)C1CCN(c2ccc(Nc3nc(N)n(-c4nc(Cl)nc5c(C)csc45)n3)cc2F)C1` (centres unmarked) [Compound 211, 1-(7-methyl-2-chlorothieno[3,2-d]pyrimidin-4-yl)-N^3-(3-fluoro-4-(3-diethylaminopyrrolidin-1-yl)phenyl)-1H-1,2,4-triazole-3,5-diamine], the concentration for half-maximal inhibition (IC50) under setting [2] was less than 1000 nM.

Regarding `CN(C)[C@@H]1CCN(c2ccc(Nc3nc(N)n(-c4nccc5ccccc45)n3)cc2)C1` [Compound 164, N^3-(4-((R)-3-(dimethylamino)pyrrolidin-1-yl)phenyl)-1-(isoquinolin-1-yl)-1H-1,2,4-triazole-3,5-diamine], under setting [2], the IC50 is less than 1000 nM.
